Where two headings read alike, the source gives them in different places.
Legend:
[1] = test system: Rat vascular smooth muscle cells; test: cells; type: cell-based; conditions: for inhibition of DNA synthesis by other inhibitors of the Ca++ activated K channel: bFGF-stimulated
Description: (§1) DNA synthesis assessed by the uptake of [3H]thymidine: Cells are grown in either 48 or 96 wells plates (Costar, Cambridge, Mass.) at 10^4 and 0.8 10^3 cells per well, respectively, and grown in Dubelcco's modified Eagle's medium (DME, Gibco, Grand Island, N.Y.) supplemented with 10% heat-inactivated calf serum; they are kept at 37° C. in 5% CO2. When they reach confluence, usually between 3 and 4 days, the medium is replaced with DME 0.5% serum to make them quiescent, and mitogenesis assays are performed 24 hours later.
(§2) Quiescent cells are exposed to a mitogenic stimulus, such as 10% serum, PDGF (Sigma Co. St. Louis, Mo.), bFGF (Upstate Biotechnologies, Lake Placid, N.Y.), or other appropriate mitogen according to the cell line, and 3 hours 1 later μCi/ml of [3H]thymidine (Dupont, Billerica, Mass.) is added to the wells, and the cells maintained at 37° C./5% CO2 for additional 21 hours. Then the cells are washed 3 times with DME medium and the acid-precipitable radioactivity is extracted with cold 10% TCA (Sigma, Co). After neutralization with 0.3N NaOH (Sigma Co.), aliquots are counted in a Packard Tri-Carb Scintillation counter (Packard Instrument, Downer's Grove, Ill.).
Rat vascular smooth muscle cells (murine cell line): Quiescent cells were stimulated with purified growth factors (PDGF and bFGF, […]) and synthesis of DNA was assessed by the incorporation of [3H]thymidine measured 24 hours later.
Cells were stimulated using […] bFGF. […] (FIG. 2)
Other antimycotics were tested for their inhibition of bFGF-stimulated DNA synthesis in rat vascular smooth muscle cells.

[2] = test system: Bovine endothelial (BAEC); test: Cell growth (flask surface covered by the cell monolayer), bovine endothelial cells; type: cell-based; conditions: CLT 10 μM; 48 hs; DME 10% calf serum; control 90±2%
Description: (§3) Measurement of cell density in culture plates: Cells of a specific test cell line are seeded at precisely the same low density in culture plates and incubated for approximately 12 hours in DME 10% serum, or other culture medium depending on the cell line tested. […] Alternatively, the cells can be detached from the plate by incubation with trypsin (Sigma, Co.) […] in ethylene diaminotetraacetic acid (ECTA; Sigma, Co); then the cells are counted in an hemocytometer chamber (Fisher, Pittsburgh, Pa.).
(§4) After 48 hs cell growth was assessed by optic miscroscopy calculating the surface of the culture flask covered by the cell monolayer.

[3] = test system: human umbilical vein (HUVEC); test: Cell growth (flask surface covered by the cell monolayer), human umbilical vein cells; type: cell-based; conditions: CLT 10 μM; 48 hs; DME 10% fetal calf serum; control 90±2%
Description: as §3, §4

[4] = target: T1, Ca^++ activated K channel (Homo sapiens, UniProt O15554); test: Inhibition of the Ca++ activated K channel of human erythrocytes (86Rb influx, K efflux); type: cell-based; conditions: for order of inhibitory potency, Ca++ activated 86Rb influx / inhibition of Ca++ activated 86Rb influx by other antimycotics and related compounds: human erythrocytes, FIG. 4
T1 construct: endogenous in cells; host or cells: human erythrocytes (washed red blood cells from heparinized blood)
Description: Preparation of Human Red Blood Cells: Blood is collected in heparinized tubes and centrifuged in a Sorvall centrifuge (RB 5B, Du Pont Instruments,Newtown, Conn.) at 5° C. for 10 minutes at 3000 g. Plasma and buffy coat are carefully removed and the cells washed four times with a washing solution containing 150 mM choline chloride (Sigma Co), 1 mM MgC12 (Sigma Co), 10 mM Tris-MOPS (Sigma, Ca), pH 7.4 at 4° C.(CWS). An aliquot of cells is then suspended in an approximately equal volume of CWS, and from this original cell suspension hematocrit (Hct) and hemoglobin (optical density at 540 nm) are determined.
Methods to Test Inhibitors of the Ca^++ Activated K: To test inhibitors of the Ca^++ activated K channel, the channel is activated using the calcium ionophore A23187 (Chalbiochem).
By Atomic Absorption Spectrometry: Washed human erythrocyte are suspended at an hematocrit =1% in CWS containing 0.150 mM CaCl2 (Sigma Co) Aliquots of 1 ml are removed at 0, 3 and 5 minutes, layered on top of 0.3 ml of the oil n-butyl phthalate (Fair Lane, N.J.) placed in an Eppendorf microtube (Fisher) and then centrifuged in a micro centrifuge for 20 seconds. At time 5.30 minutes, ionophore A23187 (1 μM final concentration) is added and samples removed and spin down through phthalate at times 6, 7, 8 and 9 minutes. The supernatant on top of the oil layer is removed and its K+ concentration is measured by atomic absorption spectrometry using a Perking Elmer model 5000 spectrometer (Perkin Elmer Corp., Norwolk, Conn.). The efflux of K+ (mmol/1 cells/h) in the absence and presence of the inhibitor is calculated from the slope of the curves relating the K+ concentration in the supernatants (mmol/1 cells) vs. time (min.).
By radioisotopic measurement of ^86 Rb influx. The incubation medium is the same but contains 2 mM KCl and 1 μCi/ml of the radioactive tracer ^86 Rb. After spinning the samples through the phthalate layer, the tubes are rapidly frozen (-80° C.) by immersion in methanol-dry ice, the tips of the tubes containing the packed red cells cut, and counted in a Packard Gamma Counter.

[5] = test system: Swiss 3T3; test: Proliferative response of quiescent 3T3 cells to conditioned media of MAC treated endothelial cells; type: cell-based, murine; conditions: 10 μM CLT; FIG. 5
Description: (§5) When endothelial cells (EC) in culture (both BAEC and HUVEC) are treated with terminal complement components to form the MAC (membrane attack complex of complement), they release into the culture medium a potent mitogenic activity that stimulates the proliferation of quiescent cells used as indicators of the mitogens. Both, quiescent Swiss 3T3 and vascular smooth muscle cells are stimulated by the mitogens released form EC in response to the MAC (FIG. 5; Halperin et al. unpublished observation). Moreover, immunoprecipitation with specific antibodies has documented that both PDGF and bFGF released from the EC contribute in approximately equal proportion to the mitogenic activity induced by the MAC (data not shown).

[6] = test system: vascular smooth muscle cells; test: Proliferative response of vascular smooth muscle cells to conditioned media of MAC treated endothelial cells; type: cell-based; conditions: 10 μM CLT; FIG. 5
Description: as §5

[7] = test system: Swiss 3T3 cells; test: DNA synthesis ([3H]thymidine incorporation) in normal fibroblasts; type: cell-based, murine
Description: as §1, §2
Swiss 3T3 cells (murine fibroblast cell line): Quiescent cells were stimulated with purified growth factors (PDGF and bFGF, […]) and synthesis of DNA was assessed by the incorporation of [3H]thymidine measured 24 hours later.

[8] = test system: endothelial cells; test: Proliferation of endothelial cells (general statement); type: cell-based; conditions: for inhibition of proliferation of endothelial cells: specific inhibitors of the Ca++ activated potassium channel
[9] = test system: vascular smooth muscle cells; test: Proliferation of vascular smooth muscle cells (general statement); type: cell-based; conditions: for inhibition of proliferation of vascular smooth muscle cells: specific inhibitors of the Ca++ activated potassium channel
[10] = test system: testicular and adrenal synthesis of steroid hormones; conditions: cited from earlier work
[11] = test system: cell proliferation; test: Cell proliferation with inhibitors of other transport systems (general statement); type: cell-based; conditions: inhibitors of other transport systems activated by mitogens
[12] = 60 μmol A23187/L cell and 100 μM CaCl2

## Clc1ccccc1C(c1ccccc1)(c1ccccc1)n1ccnc1 [CLT, clotrimazole]
[1]
  dose response of inhibition of DNA synthesis: Inhibition was dose dependent
  inhibition of DNA synthesis: complete inhibition
  inhibition of PDGF stimulated DNA synthesis: completely inhibited
  inhibition of bFGF stimulated DNA synthesis: completely inhibited
  order of inhibitory potency, bFGF-stimulated DNA synthesis: CLT more potent than ECZ
  reversibility of the inhibition of DNA synthesis (toxic, non-specific effect): reversed by removing CLT
[1]; 10 µM
  inhibition of bFGF-stimulated DNA synthesis: inhibited DNA synthesis
[1]; Rattus norvegicus, read-out: inhibition of DNA synthesis
  inhibition at 1 µM: 45%
[2]
  flask surface covered by cells: less than 10%
[3]
  flask surface covered by cells: less than 10%
[4]; [12]
  inhibition of Ca++ activated 86Rb influx: markedly inhibited
  inhibition of Ca++ activated K efflux: markedly inhibited
[4]
  order of inhibitory potency, Ca++ activated 86Rb influx: clotrimazole more than miconazole
[5]
  inhibition of proliferative response to mitogens released from EC by MAC: completely inhibited
[6]
  inhibition of proliferative response to mitogens released from EC by MAC: completely inhibited
[7]; 10 μM CLT, PDGF, 5 μM, 24 hours
  inhibition of PDGF stimulated DNA synthesis: completely inhibited
[7]; 10 μM CLT, bFGF, 5 μM, 24 hours
  inhibition of bFGF stimulated DNA synthesis: completely inhibited
[7]; removing CLT and re-stimulating with the growth factor
  reversibility of the inhibition of DNA synthesis (toxic, non-specific effect): reversed by removing CLT

## Clc1ccc(COC(Cn2ccnc2)c2ccc(Cl)cc2Cl)cc1 (centres unmarked) [ECZ, econazole]
[1]; 10 μM, FIG. 3
  order of inhibitory potency, bFGF-stimulated DNA synthesis: ECZ more potent than MCZ
[1]; antimycotics at 10 μM, FIG. 3
  inhibition of bFGF-stimulated DNA synthesis: inhibited DNA synthesis
[4]
  order of inhibitory potency, Ca++ activated 86Rb influx: both of these were more than econazole

## CC(=O)N1CCN(c2ccc(OCC3COC(Cn4ccnc4)(c4ccc(Cl)cc4Cl)O3)cc2)CC1 (centres unmarked) [Ketoconazole, ketoconazole]
[8]; ketoconazole, no data given
  usefulness for inhibiting endothelial cell proliferation: not useful
[9]; ketoconazole, no data given
  usefulness for inhibiting smooth muscle cell proliferation: not useful
[10]; by blocking steroid synthesis
  treatment of prostate cancer: effective in treating some prostate cancers
[10]; hormonal adjuvant for prostate cancer treatment
  plasma testosterone: reduces plasma testosterone to castration levels
[10]; in high doses
  testicular and adrenal synthesis of steroid hormones, including testosterone: appears to inhibit

## Clc1ccc(COC(Cn2ccnc2)c2ccc(Cl)cc2Cl)c(Cl)c1 (centres unmarked) [MCZ, miconazole]
[1]; 10 μM, FIG. 3
  order of inhibitory potency, bFGF-stimulated DNA synthesis: ECZ more potent than MCZ
[1]; antimycotics at 10 μM, FIG. 3
  inhibition of bFGF-stimulated DNA synthesis: inhibited DNA synthesis
[4]
  order of inhibitory potency, Ca++ activated 86Rb influx: both of these were more than econazole

## N=C(N)NC(=O)c1nc(Cl)c(N)nc1N [amiloride]
[11]
  inhibition of cell proliferation: do not inhibit cell proliferation

## OC(Cn1cncn1)(Cn1cncn1)c1ccc(F)cc1F [fluconazole]
[4]
  inhibition of Ca++ activated 86Rb influx by other antimycotics and related compounds: no inhibition

## Cc1ncc([N+](=O)[O-])n1CCO [metronidazole]
[4]
  inhibition of Ca++ activated 86Rb influx by other antimycotics and related compounds: only marginal

## Cc1ncc([N+](=O)[O-])n1CC(O)CCl (centres unmarked) [ornidazole]
[4]
  inhibition of Ca++ activated 86Rb influx by other antimycotics and related compounds: no inhibition

## C[C@@H]1O[C@@H](O[C@H]2C[C@@H](O)[C@]3(CO)[C@H]4[C@H](O)C[C@]5(C)[C@@H](C6=CC(=O)OC6)CC[C@]5(O)[C@@H]4CC[C@]3(O)C2)[C@H](O)[C@H](O)[C@H]1O [ouabain]
[11]
  inhibition of cell proliferation: do not inhibit cell proliferation

## CCS(=O)(=O)CCn1c([N+](=O)[O-])cnc1C [tinidazole]
[4]
  inhibition of Ca++ activated 86Rb influx by other antimycotics and related compounds: no inhibition

## Charybdotoxin
[1]; FIG. 3
  inhibition of DNA synthesis by other inhibitors of the Ca++ activated K channel: failed to inhibit DNA synthesis
[8]
  inhibition of proliferation of endothelial cells: do not inhibit proliferation
[9]
  inhibition of proliferation of vascular smooth muscle cells: do not inhibit proliferation

## kaliotoxin: specific inhibitors of the Ca^++ activated potassium channel
[1]; FIG. 3
  inhibition of DNA synthesis by other inhibitors of the Ca++ activated K channel: failed to inhibit DNA synthesis
[8]
  inhibition of proliferation of endothelial cells: do not inhibit proliferation
[9]
  inhibition of proliferation of vascular smooth muscle cells: do not inhibit proliferation

— patent US5358959A, “Methods for treating arteriosclerosis” (President and Fellows of Harvard University, priority 1993, dated 1994)
